# Experimental data as given in article PMC6814236, “Monitoring and characterizing soluble and membrane-bound ectonucleotidases CD73 and CD39” (PLoS ONE, 2019).
# Key:
# [1] = target: T1, Recombinant Human 5'-Nucleotidase/CD73 (Homo sapiens, UniProt P21589); test: Enzyme activity of purified CD73 (AMP-Glo assay); type: biochemical; settings: for IC50: 0.1 ng CD73, 5min at 23°C
# T1 construct: purchased R&D Systems
# T1 sequence (P21589 27-574): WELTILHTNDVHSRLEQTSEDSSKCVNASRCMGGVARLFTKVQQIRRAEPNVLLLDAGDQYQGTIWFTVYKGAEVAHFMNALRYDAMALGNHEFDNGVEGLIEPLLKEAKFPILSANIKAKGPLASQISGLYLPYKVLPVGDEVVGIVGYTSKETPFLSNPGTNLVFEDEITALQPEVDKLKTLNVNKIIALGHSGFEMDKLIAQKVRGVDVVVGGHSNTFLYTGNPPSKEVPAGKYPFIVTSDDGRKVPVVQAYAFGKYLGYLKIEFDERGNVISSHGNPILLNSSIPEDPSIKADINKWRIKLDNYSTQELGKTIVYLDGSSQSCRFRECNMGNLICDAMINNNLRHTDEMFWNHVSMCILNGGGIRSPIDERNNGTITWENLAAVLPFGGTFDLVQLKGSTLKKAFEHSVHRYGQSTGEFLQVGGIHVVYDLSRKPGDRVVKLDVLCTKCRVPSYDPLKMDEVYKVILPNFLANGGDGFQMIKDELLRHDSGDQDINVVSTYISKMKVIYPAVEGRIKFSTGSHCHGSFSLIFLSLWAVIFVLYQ
# Protocol: • Determination of enzyme activity of purified CD73. In a 25 μl reaction buffer (10mM HEPES, pH 7.4, 2mM MgCl2, 1mM CaCl2, and 0.1mg/ml BSA) containing enzyme and AMP substrate at 1μM to 10μM (96-well format), enzyme activity was performed at 23°C for specified time period and terminated by the addition of equal volume (25μl) of AMP-Glo™ Reagent I containing 50 μM (final concentration) of known CD73 inhibitor, such as AMPCP. Reactions were mixed well and incubated for additional 30 min at 23°C. This was followed by the addition of 50 μl of AMP Detection Solution (10μl of AMP-Glo™ Reagent II per ml of Kinase-Glo® One Solution) and incubated for additional 60 min at 23°C before reading luminescence.
# [2] = target: T2, CD39 (His-Tag Human) (Homo sapiens, UniProt P49961); test: Enzyme activity of purified CD39 with ATP or ADP as substrate; type: biochemical; settings: for inhibitory effect on purified CD39: 0.1ng CD39, 10 μM ATP or 10 μM ADP, 30min at 37°C
# T2 construct: His; purchased R&D Systems
# T2 sequence (P49961 1-510): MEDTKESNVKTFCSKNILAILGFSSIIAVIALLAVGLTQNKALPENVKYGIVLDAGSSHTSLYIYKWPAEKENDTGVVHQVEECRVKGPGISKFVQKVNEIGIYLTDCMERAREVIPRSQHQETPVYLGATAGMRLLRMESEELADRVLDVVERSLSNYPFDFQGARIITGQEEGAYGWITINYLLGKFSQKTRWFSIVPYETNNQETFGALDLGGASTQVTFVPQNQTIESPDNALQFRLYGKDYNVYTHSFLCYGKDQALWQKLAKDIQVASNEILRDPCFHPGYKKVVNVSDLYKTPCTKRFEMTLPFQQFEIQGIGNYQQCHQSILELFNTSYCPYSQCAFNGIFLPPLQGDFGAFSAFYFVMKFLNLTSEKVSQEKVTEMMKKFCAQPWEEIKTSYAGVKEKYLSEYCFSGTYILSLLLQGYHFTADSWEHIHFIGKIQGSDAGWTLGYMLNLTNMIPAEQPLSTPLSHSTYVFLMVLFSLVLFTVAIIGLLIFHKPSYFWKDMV
# Protocol: • 2 Determination of enzyme activity of purified cytosolic cN-II. Activity of purified cN-II (Human cytosolic 5'-Nucleotidase) was determined using 25μl reaction buffer (50mM HEPES, pH 7.0, 100mM KCl, 20mM MgCl2, 5mM DTT, 2.5mM dATP, and 0.1mg/ml BSA) containing enzyme and AMP substrate at 10μM (96-well format). Reaction continued at 37°C for 60 minutes or for a certain time period and terminated by the addition of equal volume (25μl) of AMP-Glo™ Reagent I. Reactions were mixed well and incubated for additional 30 min at 23°C. This was followed by the addition of 50 μl of AMP Detection Solution (10μl of AMP-Glo™ Reagent II per ml of Kinase-Glo® One Solution) and incubated for additional 60 min at 23°C before reading luminescence. • 3 Determination of enzyme activity of purified CD39. […] When ATP is used as a substrate, an equal volume of Kinase-Glo® One Solution was added to CD39 reactions and incubated for 15 min before reading luminescence using a luminometer. When ADP is used as a substrate for CD39, after enzyme reaction completion, an equal volume of AMP Detection Solution with a known CD39 known inhibitor, such as POM 1 at 50μM final concentration was added. Reactions were mixed well and incubated for 60min before reading luminescence using luminometer. For enzyme dilution, reaction buffer can be used for dilution of enzymes.
# [3] = tested on: T3, PKA, protein kinase A; test: Inhibitor specificity against other enzymes: PKA; type: biochemical
# T3 construct: purchased Promega
# Source text: (§1) Enzyme tested are protein serine/threonine/tyrosine, lipid, sugar, and inorganic kinases, and K/Na ATPase. […] PKA, protein kinase A (solid circle), PKCα (solid square), Src, protein tyrosine Src kinase (solid triangle), Acka, acetate kinase from Escherichia coli (solid reverse triangle), HK, hexokinase from Saccharomyces cerevisiae (solid circle), PI3αKinase, p110α/p85α (square), K/K ATPase, Adenosine 5´-Triphosphatase from porcine cerebral cortex (circle), CD39 (ATP substrate, triangle), and CD39 (ADP substrate, reverse triangle); for CD73 (triangle) in panel B. Each point represents average of a typical experiment done in triplicates; results shown are mean ± SD.
# [4] = tested on: T4, PKCα; test: Inhibitor specificity against other enzymes: PKCα; type: biochemical
# T4 construct: purchased Promega
# Source text: as §1
# [5] = tested on: T5, Src, protein tyrosine Src kinase; test: Inhibitor specificity against other enzymes: Src; type: biochemical
# T5 construct: purchased Promega
# Source text: as §1
# [6] = tested on: T6, Acka, acetate kinase; test: Inhibitor specificity against other enzymes: acetate kinase; type: biochemical, Escherichia coli
# T6 construct: purchased Millipore Sigma
# Source text: as §1
# [7] = tested on: HK, hexokinase; test: Inhibitor specificity against other enzymes: hexokinase; type: biochemical, Saccharomyces cerevisiae
# Source text: as §1
# [8] = tested on: T7, PI3αKinase, p110α/p85α; test: Inhibitor specificity against other enzymes: PI3Kα; type: biochemical
# T7 construct: purchased Promega
# Source text: as §1
# [9] = tested on: Adenosine 5'-Triphosphatase from porcine cerebral cortex (Na+/K+-ATPase)
# Source text: as §1
SMILES,IC50 ([1]; 5 μM AMP),IC50 ([1]; 10 μM AMP),inhibitory effect on purified CD39 [2],inhibition of PKA [3],inhibition of PKCα [4],inhibition of Src [5],inhibition of acetate kinase [6],inhibition of hexokinase [7],inhibition of PI3Kα [8],inhibition of K+/Na+-ATPase [9],"effect on CD73 enzyme activity ([1]; purified CD73, 0.1ng, 1μM AMP, 5 min at 23°C (Fig 6))","IC50 ([2]; 10 μM ADP as substrate, 0.1 ng enzyme)"
"Nc1ncnc2c1ncn2[C@@H]1O[C@H](COP(=O)(O)CP(=O)(O)O)[C@@H](O)[C@H]1O [AMP-CP, Adenosine 5'-(α, β-methylene) diphosphate]",157 nM,300 nM,no inhibitory effect,minimal inhibition,no inhibition,no inhibition,no inhibition,no inhibition,no inhibition,no inhibition,–,–
"[Na+].[Na+].[Na+].[Na+].[Na+].[Na+].[O]=[W](=[O])([O-])[O-].[O]=[W](=[O])([O-])[O-].[O]=[W](=[O])([O-])[O-].[O]=[W](=[O])=[O].[O]=[W](=[O])=[O].[O]=[W](=[O])=[O].[O]=[W](=[O])=[O].[O]=[W](=[O])=[O].[O]=[W](=[O])=[O].[O]=[W](=[O])=[O].[O]=[W](=[O])=[O].[O]=[W](=[O])=[O] [POM1, Sodium metatungstate]",–,–,inhibited,inhibited,inhibited,inhibited,inhibited,inhibited,inhibited,inhibited,no effect,3.7 µM
